Results reported in patent US20220016115A1, “USP19 INHIBITORS FOR USE IN THERAPY” (ALMAC DISCOVERY LIMITED, priority 2018, published 2022).
“Also recorded” adds a separate entry of the source.

How the values were obtained:
Assay type in all cases: in vivo
[1] = test system: diet-induced obese (DIO) mouse; assay: Oral glucose tolerance test (OGTT) in diet-induced obese mice
Experimental: (§1) To assess obesity and insulin resistance, a diet-induced obesity mouse model was used.
(§2) Male C57BL6/J mice were continuously provided with high-fat diet (D12451, 45% kcal as fat; Research Diets, New Jersey, USA) and filtered tap water ad libitum for the duration of the study. From day 0, mice were administered vehicle i.p. BID, USP19 inhibitor (ADC-141) i.p. BID at 5 mg/kg or 25 mg/kg, or positive control liraglutide 0.1 mg/kg s.c. BID. Mice were allocated to treatment groups to balance the groups on the basis of body weight, food and water intake prior to the start of treatment.
(§3) Body weight was measured daily. On Day 13, body composition was assessed by DEXA. On Day 15, fasting glucose and insulin levels were measured before and during an oral glucose tolerance test (OGTT) to assess improvements in glucose control. The OGTT was performed following an overnight fast. […] An OGTT was performed the following morning (approx. 16h post fast). Mice were dosed with vehicle or test compound (starting at 08.45) to a timed schedule 30 minutes prior to the administration of the glucose challenge (2.0 g/kg po). Blood samples were taken immediately prior to dosing (B1), immediately prior to glucose administration (B2) and 15, 30, 60 and 120 minutes after glucose administration.

male C57bl/6 mice = assay: Sciatic nerve denervation muscle wasting model; conditions: 75 mg/kg IP twice daily, vs vehicle
Experimental: To induce muscle wasting, a 1 cm segment of the sciatic nerve in the thigh was removed from mice (male C57bl/6 mice at 8-10 weeks of age; n=10 per group) under isoflurane anaesthesia and analgesia with carprofen. A sham operation was carried out in the opposite leg as a control.
Mice were randomised into Vehicle or Test groups, with all animals weighed to ensure a similar mean weight in each group. A USP19 inhibitory compound (ADC-141, which is 1-(((S)-7-((R)-3-Cyclohexyl-2-methylpropanoyl)-10-hydroxy-7-azaspiro[4.5]decan-10-yl)methyl)-4-phenyl-5-(piperazine-1-carbonyl)pyridin-2(1H)-one, corresponding to exemplary compound 212 provided herein) at 75 mg/kg or Vehicle was administered IP twice daily starting from the evening post-operation.
Mice were sacrificed 14 days later. Fat pads, liver, gastrocnemius and tibialis anterior muscles were harvested. Tissue mass were measured in both groups.

[2] = test system: diet-induced obese (DIO) mouse; assay: Diet-induced obesity mouse model: body weight, DEXA and carcass composition
Experimental: as §1, §2, §3
After OGTT, mice were humanely killed and carcass composition was assessed. The carcass was weighed and stored frozen and the chemical composition of each carcass (fat, protein, water and ash) was determined using classical techniques. Carcass water was determined by freeze-drying the carcasses to constant weight for 2 weeks. Carcass fat was determined on samples of the dry powdered carcasses using a modified Soxhlet extraction protocol (petroleum ether at 40-60° C.) with a Tecator Soxtec 2050 system (Foss UK Ltd, Wheldrake, UK) according to the manufacturer's recommended protocol. Carcass protein was determined using a micro-Kjeldahl procedure on samples of the dry powdered carcasses using a Tecator 2012 digestion block and 2200 distilling unit (Foss UK Ltd). Residual carcass ash was determined by firing samples of the dry powdered carcasses at high temperatures using a muffle ashing furnace (Carbolite OAF 11/1). Repeat determinations of the chemical analysis parameters were performed if necessary (e.g. if the duplicate samples differed by more than 1%). Data for each body composition parameter (fat, protein, water and ash) was determined as g/carcass and % total. Final carcass weights were also analysed as a direct comparison.

[3] = ADC-141 25 mg/kg ip bid, liraglutide 0.1 mg/kg sc bid
[4] = ADC-141 25 mg/kg ip bid, liraglutide 0.1 mg/kg sc bid, vs vehicle
[5] = DEXA, ADC-141 25 mg/kg ip bid, liraglutide 0.1 mg/kg sc bid

C[C@H](CC1CCCCC1)C(=O)N1CC[C@@](O)(Cn2cc(C(=O)N3CCNCC3)c(-c3ccccc3)cc2=O)C2(CCCC2)C1 [ADC-141, 1-(((S)-7-((R)-3-Cyclohexyl-2-methylpropanoyl)-10-hydroxy-7-azaspiro[4.5]decan-10-yl)methyl)-4-phenyl-5-(piperazine-1-carbonyl)pyridin-2(1H)-one]
insulin AUC ([1]; 0-60 and 0-120 minutes, 25 mg/kg ip bid): reduced
glucose AUCB2 ([1]; 0-120 minutes only, 25 mg/kg ip bid, vs vehicle): significantly reduced
glucose AUC ([1]; 25 mg/kg ip bid, vs vehicle): significantly reduced
plasma insulin ([1]; 30, 60 and 120 minutes post-glucose, 25 mg/kg ip bid): reduced
plasma glucose ([1]; all time points pre- and post-glucose, 25 mg/kg ip bid, vs vehicle): significantly reduced
fasting plasma glucose ([1]; following 2 weeks of treatment): effective at decreasing
liver mass (male C57bl/6 mice; 2 weeks): increase in liver mass
mass of the epididymal fat pad (male C57bl/6 mice; 2 weeks): significant reduction in fat mass; also recorded: significantly smaller fat pads
loss of muscle mass in the tibialis anterior muscle (male C57bl/6 mice; denervated limb, 14 days): significantly lower loss of muscle mass
muscle wasting in the gastrocnemius muscle (male C57bl/6 mice; denervated limb, 14 days): reduced in the gastrocnemius muscle (FIG. 2), though the trend did not reach significance
relative water content of the carcass (percentage of total carcass mass) ([2]; ADC-141 5 mg/kg ip bid): no effect
carcass water content (g) ([2]; ADC-141 5 mg/kg ip bid, vs vehicle): no significant effect
carcass protein ([2]; ADC-141 5 mg/kg ip bid, vs vehicle-treated animals): no significant changes
carcass percentage fat ([2]; ADC-141 25 mg/kg ip bid): −14.6%
differences in body weights on the final day of the study [2, 3]: ~13%
loss of fat as share of the total weight lost [2, 3]: 79%
percent protein (percentage of total carcass mass), increase [2, 3]: 6.0%
reduction in carcass fat (g) from controls [2, 3]: 24.9%
relative water content of the carcass (percentage of total carcass mass) [2, 3]: +11.4%
carcass ash content (g) [2, 4]: −9.6%
carcass protein content (g) [2, 4]: −7.2%
carcass water content (g) [2, 4]: no significant effect
reduction in fat mass compared to vehicle treated controls ([2]; DEXA Day 13, liraglutide 0.1 mg/kg sc bid, dose of USP19 inhibitor not printed at place): 24%
lean body mass change ([2]; DEXA Day 13, vs vehicle, not significant (p>0.05)): −3%
total tissue mass ([2]; DEXA analysis): significant reduction
fat mass % (percentage of total tissue mass) [2, 5]: significantly decreased
lean mass % (percentage of total tissue mass) [2, 5]: increased
cumulative and average food intake ([2]; compared to vehicle control mice (p<0.001)): reduction
carcass weight compared to vehicle-treated controls ([2]; two weeks, ADC-141 25 mg/kg ip bid, liraglutide 0.1 mg/kg sc bid): ~−12%
average weekly body weight gain ([2]; week 1, ADC-141 25 mg/kg ip bid, liraglutide 0.1 mg/kg sc bid, vs vehicle): significantly decreased
average weekly body weight gain ([2]; week 2, ADC-141 25 mg/kg ip bid, liraglutide 0.1 mg/kg sc bid, vs vehicle): significantly decreased
